According to publication PMC4311969 (Journal of the American Chemical Society, 2015):
Where “and” joins values, the source holds several entries; their conditions need not be identical. Equal entries are not always repeated. Structures can show the parent of a compound that is named as a salt. Where two headings read alike, the source gives them in different places. Values belong to the compound of their own block, whether it stands above or below them.

Columns and labels:
[1] = target: T1, yeast orotidine monophosphate decarboxylase (ScOMPDC) (Saccharomyces cerevisiae, UniProt P03962, C155S); assay: Oxydianion activation of ScOMPDC-catalyzed decarboxylation of EO; format: biochemical
T1 sequence (P03962 1-267 C155S): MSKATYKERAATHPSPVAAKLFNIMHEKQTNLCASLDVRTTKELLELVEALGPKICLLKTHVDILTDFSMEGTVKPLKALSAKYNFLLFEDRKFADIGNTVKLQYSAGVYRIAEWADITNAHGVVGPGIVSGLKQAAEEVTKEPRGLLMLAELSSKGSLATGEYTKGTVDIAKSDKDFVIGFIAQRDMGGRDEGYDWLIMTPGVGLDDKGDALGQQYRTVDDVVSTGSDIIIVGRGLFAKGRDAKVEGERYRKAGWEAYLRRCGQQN

[2] = target: T1, yeast orotidine monophosphate decarboxylase (ScOMPDC); conditions: cited from earlier work; for intrinsic oxydianion binding energy (ΔG^‡): ScOMPDC-catalyzed decarboxylation of EO
[3] = target: T2, human liver glycerol 3-phosphate dehydrogenase (hlGPDH) (Homo sapiens, UniProt P21695); assay: Oxydianion activation of hlGPDH-catalyzed reduction of GA by NADH; format: biochemical; conditions: for RT ln(K^‡)X, intrinsic Gibbs dianion binding free energy: hlGPDH-catalyzed reduction of GA
T2 sequence (P21695 1-349): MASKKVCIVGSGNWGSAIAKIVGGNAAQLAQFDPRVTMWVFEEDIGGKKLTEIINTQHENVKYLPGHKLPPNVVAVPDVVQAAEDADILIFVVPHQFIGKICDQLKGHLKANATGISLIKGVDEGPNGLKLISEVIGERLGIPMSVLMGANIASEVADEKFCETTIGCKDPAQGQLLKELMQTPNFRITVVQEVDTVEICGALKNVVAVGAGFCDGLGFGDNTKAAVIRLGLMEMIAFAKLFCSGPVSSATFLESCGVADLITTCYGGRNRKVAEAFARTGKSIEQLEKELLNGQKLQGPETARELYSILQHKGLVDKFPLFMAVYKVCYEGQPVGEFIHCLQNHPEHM

[4] = target: T3, yeast triosephosphate isomerase (ScTIM) (Saccharomyces cerevisiae, UniProt P00942); assay: Oxydianion activation of ScTIM-catalyzed reactions of [1-13C]-GA in D2O; format: biochemical; conditions: for RT ln(K^‡)X, intrinsic Gibbs dianion binding free energy: [1-^13C]-GA in D2O; for RT ln(K^‡)X, intrinsic Gibbs dianion binding free energy / Kd: 25 °C; for Kd: read-out: KX, dissociation constant for release of the oxydianion from ScTIM, 20 mM [1-^13C]-GA in D2O, pD 7.0 (20 mM imidazole), I = 0.1 (NaCl), fit to eq 3
T3 sequence (P00942 1-248): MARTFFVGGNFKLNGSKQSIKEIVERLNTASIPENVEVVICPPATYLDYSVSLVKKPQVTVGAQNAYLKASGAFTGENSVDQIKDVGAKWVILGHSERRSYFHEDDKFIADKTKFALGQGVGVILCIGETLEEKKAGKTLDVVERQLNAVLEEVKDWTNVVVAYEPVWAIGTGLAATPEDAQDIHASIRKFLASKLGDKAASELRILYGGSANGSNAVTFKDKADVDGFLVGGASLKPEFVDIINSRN

[5] = target: T4, human liver GPDH (hlGPDH) (Homo sapiens, UniProt P21695); format: biochemical; conditions: identical plots at 0.10 or 0.20 mM NADH; printed ≪
T4 sequence (P21695 1-349): T2 sequence (P21695 1-349)

ScOMPDC = conditions: cited from earlier work
[6] = pH 7.5 (10 mM TEA), 25 °C, 0.2 mM NADH, I = 0.12 (NaCl)

Structure (SMILES): O=[As](O)(O)O [HOAsO3^2–]
intrinsic oxydianion binding energy (ΔG^‡) [2]: no activation detected

Structure (SMILES): O=CCO [GA, glycolaldehyde]
k′cat, turnover of the complex between enzyme and substrate pieces ([3]; GA + HPO3^2–, estimated as [(kcat/Km)E·HPi]Kd): 5.5 s^–1
kcat, unactivated reduction of GA ([3]; no dianion, 0.05 mM hlGPDH, pH 7.5, 25 °C, 0.2 mM NADH, I = 0.12 (NaCl)): 3.1 × 10^–4 s^–1
KGA, unactivated reduction of GA ([3]; no dianion, carbonyl form of GA, pH 7.5, 25 °C, 0.2 mM NADH, I = 0.12 (NaCl)): 6.2 mM
Kd ([3]; read-out: Kd of truncated substrate, substrate pieces, GA + HPO3^2–): 5 mM

Structure (SMILES): O=S(O)O [SO3^2–]
intrinsic oxydianion binding energy (ΔG^‡) [2]: -8.3 kcal/mol

Structure (SMILES): O=[PH](O)O [HPO3^2–, phosphite dianion]
intrinsic dianion binding energy (given without sign) ([4]; ScTIM): 6.3 kcal/mol
RT ln(K^‡)X, intrinsic Gibbs dianion binding free energy ([4]; ScTIM): –6.3 kcal/mol
RT ln(K^‡)X, intrinsic Gibbs dianion binding free energy ([4]; ScTIM, listed as phosphite dianion): −6.3 kcal/mol
ratio of (kcat/Km)E·X/KX to (kcat/Km)E ([4]; ScTIM-catalyzed isomerization, substrate pieces): 4.4 × 10^4 M^–1
Kd [4]: 18 ± 3 mM
RT ln(K^‡)X, intrinsic Gibbs dianion binding free energy ([3]; 25 °C): –7.5 kcal/mol
RT ln(K^‡)X, intrinsic Gibbs dianion binding free energy ([3]; 25 °C, listed as phosphite dianion): −7.5 kcal/mol
(kcat)E·X, first-order rate constant for turnover of the Michaelis complex [3, 6]: 5.5 ± 0.3 s^–1
Kd ([3]; read-out: KX, dissociation constant for release of the oxydianion from the binary or ternary enzyme complex, pH 7.5 (10 mM TEA), 25 °C, 0.2 mM NADH, I = 0.12 (NaCl)): 70 ± 4 mM
intrinsic dianion binding energy (given without sign) ([1]; ScOMPDC): 7.7 kcal/mol
ratio of (kcat/Km)E·X/KX to (kcat/Km)E ([1]; yeast OMPDC-catalyzed decarboxylation, substrate pieces): 4.4 × 10^5 M^–1
intrinsic oxydianion binding energy (ΔG^‡) [2]: -7.7 kcal/mol

Structure (SMILES): O=C(O)c1cc(=O)[nH]c(=O)n1[C@@H]1O[C@H](COP(=O)(O)O)[C@@H](O)[C@H]1O [OMP, Orotidine 5′-monophosphate]
kcat, turnover of whole substrate (ScOMPDC): 16 s^–1

Structure (SMILES): O=S(O)(O)=S [S2O3^2–, thiosulfate dianion]
Kd [4]: 7 ± 1 mM
(kcat)E·X, first-order rate constant for turnover of the Michaelis complex [3, 6]: 0.0190 ± 0.002 s^–1
intrinsic oxydianion binding energy (ΔG^‡) [2]: -4.6 kcal/mol

More lines, main results first:

k′cat, turnover of the complex between enzyme and substrate pieces ([1]; EO + HPO3^2–, calculated using published (kcat/Km)E·HPi and Kd (ref 10)): ≈ 160 ^f s^–1
Structure (SMILES): O=C(O)c1cc(=O)n([C@@H]2OC[C@@H](O)[C@H]2O)c(=O)[nH]1 [EO, 1-(β-D-erythrofuranosyl)orotic acid]
Kd ([2]; read-out: Kd of truncated substrate, substrate pieces, EO + HPO3^2–): 100 mM and ~100 mM

RT ln(K^‡)X, intrinsic Gibbs dianion binding free energy ([3]; 25 °C): –5.9 kcal/mol
(kcat)E·X, first-order rate constant for turnover of the Michaelis complex [3, 6]: 0.360 ± 0.040 s^–1
Structure (SMILES): O=S(=O)(O)O [SO4^2–, sulfate]
intrinsic oxydianion binding energy (ΔG^‡) [2]: -4.5 kcal/mol

Km [5]: < 100 µM
Structure (SMILES): NC(=O)C1=CN([C@@H]2O[C@H](COP(=O)(O)OP(=O)(O)OC[C@H]3O[C@@H](n4cnc5c(N)ncnc54)[C@H](O)[C@@H]3O)[C@@H](O)[C@H]2O)C=CC1 [NADH]

RT ln(K^‡)X, intrinsic Gibbs dianion binding free energy ([3]; 25 °C): –4.9 kcal/mol
(kcat)E·X, first-order rate constant for turnover of the Michaelis complex [3, 6]: 0.032 ± 0.002 s^–1
Structure (SMILES): O=P(O)(O)O [HOPO3^2–, phosphate]
intrinsic oxydianion binding energy (ΔG^‡) [2]: -3.0 kcal/mol
